The target in experiment [1] is Histamine H3 receptor (Mus musculus) (UniProt P58406). Kind of experiment: In vivo Histamine H3 receptor antagonism, dose required to increase in N-t-methylhistamine levels in Swiss mice brains 90 min after p.o. administration. It counts as functional, organism-based. Particulars: Brain.
Experiment [2] deals with Histamine H3 receptor (Rattus norvegicus, UniProt Q9QYN8). Kind of experiment: In vitro inhibitory activity against Histamine H3 receptor for K+ evoked depolarization-induced release of [3H]histamine from synaptosomes of rat cerebral cortex. It counts as subcellular, Brain.
Sequence of Histamine H3 receptor (Q9QYN8 whole entry): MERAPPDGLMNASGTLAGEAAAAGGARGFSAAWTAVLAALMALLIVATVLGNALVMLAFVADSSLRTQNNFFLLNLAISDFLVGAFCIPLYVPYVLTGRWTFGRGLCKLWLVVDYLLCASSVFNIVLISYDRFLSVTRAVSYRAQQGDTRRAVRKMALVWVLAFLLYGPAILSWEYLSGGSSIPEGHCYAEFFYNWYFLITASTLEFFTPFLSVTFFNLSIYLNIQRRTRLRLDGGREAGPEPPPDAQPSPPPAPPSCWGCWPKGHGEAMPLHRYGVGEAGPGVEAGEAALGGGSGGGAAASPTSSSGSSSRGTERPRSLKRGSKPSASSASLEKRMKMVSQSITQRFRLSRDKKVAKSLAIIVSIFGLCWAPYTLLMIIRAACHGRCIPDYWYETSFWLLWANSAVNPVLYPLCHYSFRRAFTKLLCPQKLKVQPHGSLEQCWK

Sequence of Histamine H3 receptor (Mus musculus) (P58406 whole entry): as the sequence (Q9QYN8 whole entry) above, with T15A, A286T, A290G, R387H, I389V counted along it

Compound `O=C(c1ccc(OCCCc2c[nH]cn2)cc1)C1CC1` had an ED50 in experiment [1] of 0.14 mg/kg.
In turn, `CCCCc1ccc(OCCCc2c[nH]cn2)cc1` came in with an ED50 in experiment [1] of 0.96 mg/kg.
Consider `OCCCC1(c2ccc(OCCCc3c[nH]cn3)cc2)OCCO1`, for which the ED50 in experiment [1] was > 10 mg/kg. For the same compound, the Ki in experiment [2] was 40 nM.
For `O=C(CCCN1CCCC1)c1ccc(OCCCc2c[nH]cn2)cc1`, the ED50 in experiment [1] is > 10 mg/kg.
Turning to `O=C(c1ccc(OCCc2c[nH]cn2)cc1)C1CC1`, in experiment [1], the ED50 stood at 0.21 mg/kg. The same compound came in with a Ki in experiment [2] of 2.1 nM.
On the same counts, the results for `OC(c1ccc(OCCCc2c[nH]cn2)cc1)C1CC1` (stereo not given) are 0.18 mg/kg and 0.58 nM.
For `O=C(CCCO)c1ccc(OCCCc2cnc[nH]2)cc1`, the Ki in experiment [2] came out at 30 nM.
For the compound `O=C(c1ccc(OCCCCc2cnc[nH]2)cc1)C1CC1`, the Ki in experiment [2] stood at 113 nM.
Compound `O=C(c1ccc(OCc2c[nH]cn2)cc1)C1CC1` had an ED50 in experiment [1] of 2.8 mg/kg. Besides, in experiment [2], the Ki was > 500 nM.
Consider `O/N=C(/c1ccc(OCCCc2c[nH]cn2)cc1)C1CC1`, for which, in experiment [1], the 50% effect level (ED50) was put at a dose of 0.21 mg/kg.
For the compound `CCCCc1ccc(OCCCc2cnc[nH]2)cc1`, affinity in experiment [2] was put at a Ki of 60 nM.
Turning to `O=C(CCCO)c1ccc(OCCCc2c[nH]cn2)cc1`, in experiment [1], the ED50 was > 10 mg/kg.
Same read-out and setting: with `ClCC/C=C/c1ccc(OCCCc2c[nH]cn2)cc1` the figure was 0.72 mg/kg; with `O=C(c1ccc(OCCCCc2c[nH]cn2)cc1)C1CC1`, > 10 mg/kg; with `c1nc(CCCOc2ccc(CC3CC3)cc2)c[nH]1`, > 10 mg/kg.
For `CC(C)(C)CCC#C[C@@H]1C[C@H]1c1c[nH]cn1`, the ED50 in experiment [1] worked out at 0.12 mg/kg.

(Values after ChEMBL document CHEMBL1132788, “Analogues and derivatives of ciproxifan, a novel prototype for generating potent histamine H3-receptor antagonists” (Bioorg Med Chem Lett, 2000).)
